Laboratory results from US20250243196A1, “CITRON KINASE INHIBITORS” (The Cleveland Clinic Foundation, priority 2021, published 2025).

Assays:
Format in all cases: biochemical
CK1γ3(h) = CK1γ3(h) (Homo sapiens (Human), UniProt Q9Y6M4); assay: KinaseProfiler panel; parameters: dose or concentration left out as unconfirmed; details: activity remaining
SIK2(h) = SIK2(h) (Homo sapiens (Human), UniProt Q9H0K1); assay: KinaseProfiler panel; parameters: dose or concentration left out as unconfirmed; details: activity remaining
SIK2(h), sequence (Q9H0K1 whole entry): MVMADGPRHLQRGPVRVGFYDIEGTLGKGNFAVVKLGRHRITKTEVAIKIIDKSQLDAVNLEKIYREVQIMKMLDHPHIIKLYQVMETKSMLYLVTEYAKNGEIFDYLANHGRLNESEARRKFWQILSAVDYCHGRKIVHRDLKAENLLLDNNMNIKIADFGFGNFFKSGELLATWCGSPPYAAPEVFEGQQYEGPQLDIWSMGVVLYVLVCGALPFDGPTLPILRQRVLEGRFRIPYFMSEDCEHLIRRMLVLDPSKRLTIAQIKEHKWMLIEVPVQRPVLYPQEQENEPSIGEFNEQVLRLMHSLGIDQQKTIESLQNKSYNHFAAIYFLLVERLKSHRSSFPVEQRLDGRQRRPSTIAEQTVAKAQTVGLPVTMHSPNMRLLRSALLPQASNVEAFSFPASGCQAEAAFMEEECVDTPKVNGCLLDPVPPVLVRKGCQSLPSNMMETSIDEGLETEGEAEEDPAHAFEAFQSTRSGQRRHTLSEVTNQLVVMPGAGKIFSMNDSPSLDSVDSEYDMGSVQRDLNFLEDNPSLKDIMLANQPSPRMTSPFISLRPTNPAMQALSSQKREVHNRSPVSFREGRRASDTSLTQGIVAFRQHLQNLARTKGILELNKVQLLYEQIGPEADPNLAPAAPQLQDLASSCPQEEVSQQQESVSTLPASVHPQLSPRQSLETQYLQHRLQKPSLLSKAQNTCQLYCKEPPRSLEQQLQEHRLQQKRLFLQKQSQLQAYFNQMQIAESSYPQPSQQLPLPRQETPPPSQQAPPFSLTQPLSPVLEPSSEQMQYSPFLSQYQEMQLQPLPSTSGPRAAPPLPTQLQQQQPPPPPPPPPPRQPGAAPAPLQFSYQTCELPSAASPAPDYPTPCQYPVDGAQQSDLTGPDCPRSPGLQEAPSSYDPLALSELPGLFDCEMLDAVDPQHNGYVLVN

PKBγ(h) = PKBγ(h) (Homo sapiens (Human), UniProt Q9Y243); assay: KinaseProfiler panel; parameters: dose or concentration left out as unconfirmed; details: activity remaining
Plk4(h) = Plk4(h) (Homo sapiens (Human), UniProt O00444); assay: KinaseProfiler panel; parameters: dose or concentration left out as unconfirmed; details: activity remaining
CK2α1(h) = CK2α1(h) (Homo sapiens (Human), UniProt P68400); assay: KinaseProfiler panel; parameters: dose or concentration left out as unconfirmed; details: activity remaining
CHK1(h) = CHK1(h) (Homo sapiens (Human), UniProt O14757); assay: KinaseProfiler panel; parameters: dose or concentration left out as unconfirmed; details: activity remaining
CHK1(h), sequence (O14757 whole entry): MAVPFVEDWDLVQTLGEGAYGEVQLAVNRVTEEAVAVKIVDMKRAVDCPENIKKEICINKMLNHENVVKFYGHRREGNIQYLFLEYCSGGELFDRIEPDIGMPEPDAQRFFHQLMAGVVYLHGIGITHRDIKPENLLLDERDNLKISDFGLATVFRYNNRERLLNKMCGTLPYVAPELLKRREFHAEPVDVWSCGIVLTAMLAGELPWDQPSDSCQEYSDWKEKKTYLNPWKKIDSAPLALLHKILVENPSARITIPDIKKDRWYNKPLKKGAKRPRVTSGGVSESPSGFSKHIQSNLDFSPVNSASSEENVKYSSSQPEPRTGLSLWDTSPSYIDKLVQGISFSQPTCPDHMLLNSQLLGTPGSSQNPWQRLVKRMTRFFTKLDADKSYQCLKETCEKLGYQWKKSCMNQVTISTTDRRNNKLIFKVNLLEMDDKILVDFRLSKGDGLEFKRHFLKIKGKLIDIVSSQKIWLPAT

LATS1(h) = LATS1(h) (Homo sapiens (Human), UniProt O95835); assay: KinaseProfiler panel; parameters: dose or concentration left out as unconfirmed; details: activity remaining
MINK(h) = MINK(h) (Homo sapiens (Human), UniProt Q8N4C8); assay: KinaseProfiler panel; parameters: dose or concentration left out as unconfirmed; details: activity remaining
SGK(h) = SGK(h) (Homo sapiens (Human), UniProt O00141); assay: KinaseProfiler panel; parameters: dose or concentration left out as unconfirmed; details: activity remaining
SGK(h), sequence (O00141 whole entry): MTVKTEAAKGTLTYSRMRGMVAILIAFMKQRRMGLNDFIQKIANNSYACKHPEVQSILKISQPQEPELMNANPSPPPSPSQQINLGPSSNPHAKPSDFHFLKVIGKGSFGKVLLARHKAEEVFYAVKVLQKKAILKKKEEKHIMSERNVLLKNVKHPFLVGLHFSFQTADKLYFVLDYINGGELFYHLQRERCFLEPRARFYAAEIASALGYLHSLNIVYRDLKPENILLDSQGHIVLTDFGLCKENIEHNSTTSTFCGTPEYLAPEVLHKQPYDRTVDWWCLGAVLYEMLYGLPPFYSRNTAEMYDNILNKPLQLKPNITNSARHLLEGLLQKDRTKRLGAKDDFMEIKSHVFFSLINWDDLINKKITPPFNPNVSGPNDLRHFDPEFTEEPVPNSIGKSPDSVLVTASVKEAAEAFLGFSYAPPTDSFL

MAK(h) = MAK(h) (Homo sapiens (Human), UniProt P20794); assay: KinaseProfiler panel; parameters: dose or concentration left out as unconfirmed; details: activity remaining
Mnk2 = Mnk2 (Homo sapiens (Human), UniProt Q9HBH9); assay: KinaseProfiler radiometric assay (14-664KP); details: mean of at least two independent experiments
Text: In another aspect, disclosed is a method of inhibiting citron kinase in a sample, comprising contacting the sample with a compound described herein (e.g., a compound of formula (I) or a pharmaceutically acceptable salt thereof), or a pharmaceutical composition described herein (e.g., a pharmaceutical composition comprising a compound of formula (I) or a pharmaceutically acceptable salt thereof), in an amount effective to inhibit citron kinase. In some embodiments, the step of contacting the sample with the compound comprises administering the compound to a subject (e.g., a subject) suffering from cancer. Methods of determining kinase inhibition are well known in the art. For example, kinase activity of an enzyme and the inhibitory capacity of a test compound can be determined by measuring enzyme specific phosphorylation of a substrate. Commercial assays and kits can be employed. For example, kinase inhibition can be determined using a radiometric binding assay, such as using KinaseProfiler™ technology (Eurofins Discovery). This assay method directly detects product formation without the use of modified substrates or coupling enzymes. […]
The effect of various compounds on the inhibition of other kinases has also been determined. Table 2 reports measured IC50 values; value units are nanomolar inhibition.

PRP4(h) = PRP4(h) (Homo sapiens (Human), UniProt Q13523); assay: KinaseProfiler panel; parameters: dose or concentration left out as unconfirmed; details: activity remaining
ULK1(h) = ULK1(h) (Homo sapiens (Human), UniProt O75385); assay: KinaseProfiler panel; parameters: dose or concentration left out as unconfirmed; details: activity remaining
PAK1(h) = PAK1(h) (Homo sapiens (Human), UniProt Q13153); assay: KinaseProfiler panel; parameters: dose or concentration left out as unconfirmed; details: activity remaining
CDK12/cyclinK(h) = CDK12/cyclinK(h) (Homo sapiens (Human), UniProt Q9NYV4); assay: KinaseProfiler panel; parameters: dose or concentration left out as unconfirmed; details: activity remaining
PAR-1Bα(h) = PAR-1Bα(h) (Homo sapiens (Human), UniProt Q7KZI7); assay: KinaseProfiler panel; parameters: dose or concentration left out as unconfirmed; details: activity remaining
BMPR2(h) = BMPR2(h) (Homo sapiens (Human), UniProt Q13873); assay: KinaseProfiler panel; parameters: dose or concentration left out as unconfirmed; details: activity remaining
BMPR2(h), sequence (Q13873 27-1038): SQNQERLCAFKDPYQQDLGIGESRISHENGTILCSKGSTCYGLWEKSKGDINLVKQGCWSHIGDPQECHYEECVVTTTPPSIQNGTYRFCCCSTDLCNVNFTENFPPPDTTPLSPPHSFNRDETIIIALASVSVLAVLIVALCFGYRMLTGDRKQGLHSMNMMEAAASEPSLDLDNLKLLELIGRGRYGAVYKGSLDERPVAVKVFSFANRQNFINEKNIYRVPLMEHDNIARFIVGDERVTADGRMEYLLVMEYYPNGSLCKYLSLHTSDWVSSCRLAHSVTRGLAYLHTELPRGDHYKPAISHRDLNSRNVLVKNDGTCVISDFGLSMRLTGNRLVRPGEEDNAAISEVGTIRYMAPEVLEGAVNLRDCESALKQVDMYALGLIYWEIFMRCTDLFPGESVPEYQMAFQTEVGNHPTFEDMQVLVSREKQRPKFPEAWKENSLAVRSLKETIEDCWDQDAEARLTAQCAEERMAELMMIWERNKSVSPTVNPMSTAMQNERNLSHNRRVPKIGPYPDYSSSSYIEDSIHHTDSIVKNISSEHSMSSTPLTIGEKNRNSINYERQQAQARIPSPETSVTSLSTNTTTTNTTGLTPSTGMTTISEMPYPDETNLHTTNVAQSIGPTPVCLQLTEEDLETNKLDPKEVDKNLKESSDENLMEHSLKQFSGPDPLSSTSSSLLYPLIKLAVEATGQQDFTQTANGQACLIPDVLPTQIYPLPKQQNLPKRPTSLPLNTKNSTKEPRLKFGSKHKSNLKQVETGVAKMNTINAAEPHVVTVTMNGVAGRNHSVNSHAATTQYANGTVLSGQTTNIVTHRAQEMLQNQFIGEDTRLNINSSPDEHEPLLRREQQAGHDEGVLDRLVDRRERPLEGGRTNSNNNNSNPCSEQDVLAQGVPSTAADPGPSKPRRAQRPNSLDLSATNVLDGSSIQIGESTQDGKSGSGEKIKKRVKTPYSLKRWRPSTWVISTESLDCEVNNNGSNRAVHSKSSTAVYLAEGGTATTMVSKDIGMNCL

CRIK(h) = CRIK(h) (Homo sapiens (Human), UniProt O14578); assay: KinaseProfiler panel; parameters: dose or concentration left out as unconfirmed; details: activity remaining
PKCι(h) = PKCι(h) (Homo sapiens (Human), UniProt P41743); assay: KinaseProfiler panel; parameters: dose or concentration left out as unconfirmed; details: activity remaining
PKCι(h), sequence (P41743 whole entry): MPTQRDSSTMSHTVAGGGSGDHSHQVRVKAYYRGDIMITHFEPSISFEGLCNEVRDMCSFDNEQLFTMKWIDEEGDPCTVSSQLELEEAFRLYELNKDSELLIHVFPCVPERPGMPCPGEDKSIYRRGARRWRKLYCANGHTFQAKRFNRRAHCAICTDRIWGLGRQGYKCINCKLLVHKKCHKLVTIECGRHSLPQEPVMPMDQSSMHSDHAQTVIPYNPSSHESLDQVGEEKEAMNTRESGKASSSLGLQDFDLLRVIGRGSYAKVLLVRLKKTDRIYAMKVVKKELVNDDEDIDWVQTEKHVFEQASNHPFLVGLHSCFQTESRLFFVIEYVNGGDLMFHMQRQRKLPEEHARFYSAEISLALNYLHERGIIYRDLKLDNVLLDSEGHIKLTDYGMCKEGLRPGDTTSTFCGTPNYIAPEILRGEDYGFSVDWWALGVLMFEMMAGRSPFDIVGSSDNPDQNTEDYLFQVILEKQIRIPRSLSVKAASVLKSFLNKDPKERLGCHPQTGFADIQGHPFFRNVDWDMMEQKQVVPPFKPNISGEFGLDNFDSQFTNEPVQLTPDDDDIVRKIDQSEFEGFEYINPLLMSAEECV

LATS2(h) = LATS2(h) (Homo sapiens (Human), UniProt Q9NRM7); assay: KinaseProfiler panel; parameters: dose or concentration left out as unconfirmed; details: activity remaining
LATS2(h), sequence (Q9NRM7 whole entry): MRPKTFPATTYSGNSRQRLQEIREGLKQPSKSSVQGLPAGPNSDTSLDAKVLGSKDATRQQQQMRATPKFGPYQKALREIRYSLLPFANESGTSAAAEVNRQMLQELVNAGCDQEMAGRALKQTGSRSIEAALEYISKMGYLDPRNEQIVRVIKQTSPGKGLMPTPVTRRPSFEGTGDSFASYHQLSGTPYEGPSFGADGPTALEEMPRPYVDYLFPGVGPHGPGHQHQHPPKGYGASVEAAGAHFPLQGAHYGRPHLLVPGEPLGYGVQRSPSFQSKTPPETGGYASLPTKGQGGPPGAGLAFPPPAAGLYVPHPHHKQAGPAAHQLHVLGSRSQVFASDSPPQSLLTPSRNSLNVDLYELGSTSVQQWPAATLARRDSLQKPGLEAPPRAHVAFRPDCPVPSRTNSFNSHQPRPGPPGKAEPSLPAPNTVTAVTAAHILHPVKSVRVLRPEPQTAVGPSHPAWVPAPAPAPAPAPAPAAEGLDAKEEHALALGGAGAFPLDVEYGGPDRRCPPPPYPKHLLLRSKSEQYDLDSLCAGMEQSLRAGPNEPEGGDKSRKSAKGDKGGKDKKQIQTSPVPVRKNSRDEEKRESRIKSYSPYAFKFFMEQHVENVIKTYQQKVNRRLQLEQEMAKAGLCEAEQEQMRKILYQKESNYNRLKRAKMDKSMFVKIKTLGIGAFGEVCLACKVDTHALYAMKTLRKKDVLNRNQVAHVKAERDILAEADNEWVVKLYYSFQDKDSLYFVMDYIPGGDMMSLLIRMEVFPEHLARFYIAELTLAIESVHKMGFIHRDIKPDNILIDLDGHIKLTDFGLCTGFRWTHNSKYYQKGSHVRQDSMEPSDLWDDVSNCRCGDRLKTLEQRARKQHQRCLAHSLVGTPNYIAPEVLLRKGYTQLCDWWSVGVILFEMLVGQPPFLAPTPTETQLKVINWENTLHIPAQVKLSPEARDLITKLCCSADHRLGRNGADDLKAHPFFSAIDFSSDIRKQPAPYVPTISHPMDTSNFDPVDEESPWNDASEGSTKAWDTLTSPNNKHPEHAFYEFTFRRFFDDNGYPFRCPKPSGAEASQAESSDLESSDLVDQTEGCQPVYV

DDR1(h) = DDR1(h) (Homo sapiens (Human), UniProt Q08345); assay: KinaseProfiler panel; parameters: dose or concentration left out as unconfirmed; details: activity remaining
EphA1(h) = EphA1(h) (Homo sapiens (Human), UniProt P21709); assay: KinaseProfiler panel; parameters: dose or concentration left out as unconfirmed; details: activity remaining
ATR/ATRIP(h) = ATR/ATRIP(h) (Homo sapiens (Human), UniProt Q13535); assay: KinaseProfiler panel; parameters: dose or concentration left out as unconfirmed; details: activity remaining
GSK3α(h) = GSK3α(h) (Homo sapiens (Human), UniProt P49840); assay: KinaseProfiler panel; parameters: dose or concentration left out as unconfirmed; details: activity remaining
GSK3α(h), sequence (P49840 whole entry): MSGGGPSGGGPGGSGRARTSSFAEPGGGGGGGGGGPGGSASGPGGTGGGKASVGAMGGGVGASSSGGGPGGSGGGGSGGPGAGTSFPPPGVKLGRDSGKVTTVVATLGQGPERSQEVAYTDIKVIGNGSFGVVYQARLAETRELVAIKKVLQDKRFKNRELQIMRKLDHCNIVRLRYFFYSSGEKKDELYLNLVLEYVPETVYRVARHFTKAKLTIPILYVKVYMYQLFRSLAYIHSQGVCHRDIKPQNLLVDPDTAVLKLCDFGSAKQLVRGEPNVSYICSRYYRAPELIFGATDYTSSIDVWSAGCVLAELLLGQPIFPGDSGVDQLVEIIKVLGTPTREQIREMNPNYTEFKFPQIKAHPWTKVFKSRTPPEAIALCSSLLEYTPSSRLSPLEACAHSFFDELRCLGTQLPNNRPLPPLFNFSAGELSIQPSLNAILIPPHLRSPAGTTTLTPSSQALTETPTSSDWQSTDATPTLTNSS

RIPK1(h) = RIPK1(h) (Homo sapiens (Human), UniProt Q13546); assay: KinaseProfiler panel; parameters: dose or concentration left out as unconfirmed; details: activity remaining
CSK(h) = CSK(h) (Homo sapiens (Human), UniProt P41240); assay: KinaseProfiler panel; parameters: dose or concentration left out as unconfirmed; details: activity remaining

Cc1cc2c(-c3ccc(NC(=O)[C@H](N)CC(C)(C)C)cc3C)ccnc2[nH]1 [Compound F-90, (2R)-2-Amino-4,4-dimethyl-N-[3-methyl-4-(2-methyl-1H-pyrrolo[2,3-b]pyridin-4-yl)phenyl]pentanamide]
% Activity (CK1γ3(h)): 84%
% Activity (SIK2(h)): 109%
% Activity (PKBγ(h)): 101%
% Activity (Plk4(h)): 92%
% Activity (CK2α1(h)): 112%
% Activity (CHK1(h)): 108%
% Activity (LATS1(h)): 90%
% Activity (MINK(h)): 89%
% Activity (SGK(h)): 113%
% Activity (MAK(h)): 120%
IC50 (Mnk2): 2180 nM
% Activity (PRP4(h)): 100%
% Activity (ULK1(h)): 95%
% Activity (PAK1(h)): 95%
% Activity (CDK12/cyclinK(h)): 89%
% Activity (PAR-1Bα(h)): 88%
% Activity (BMPR2(h)): 85%
% Activity (CRIK(h)): 0%
% Activity (PKCι(h)): 110%
% Activity (LATS2(h)): 102%
% Activity (DDR1(h)): 98%
% Activity (EphA1(h)): 92%
% Activity (ATR/ATRIP(h)): 110%
% Activity (GSK3α(h)): 87%
% Activity (RIPK1(h)): 84%
% Activity (CSK(h)): 92%
